Results as given in patent US20220324835A1 (Nurix Therapeutics, Inc., priority 2018, published 2022).
Where a name gives a salt, the structure may show the parent alone. Read-outs that look alike come from different tables or passages of the source.

Columns and labels:
[1] = molecular target: T1, Cbl-b (Homo sapiens, UniProt Q13191); assay: Cbl-b activity assay (Cbl-b inhibition assay), TR-FRET of Cbl-b interaction with UbcH5B-Ub; type: biochemical; conditions: assay buffer with 100 mM NaCl, 60 nM Src kinase; read-out: Cbl-b activity IC50
T1 sequence (Q13191 36-427): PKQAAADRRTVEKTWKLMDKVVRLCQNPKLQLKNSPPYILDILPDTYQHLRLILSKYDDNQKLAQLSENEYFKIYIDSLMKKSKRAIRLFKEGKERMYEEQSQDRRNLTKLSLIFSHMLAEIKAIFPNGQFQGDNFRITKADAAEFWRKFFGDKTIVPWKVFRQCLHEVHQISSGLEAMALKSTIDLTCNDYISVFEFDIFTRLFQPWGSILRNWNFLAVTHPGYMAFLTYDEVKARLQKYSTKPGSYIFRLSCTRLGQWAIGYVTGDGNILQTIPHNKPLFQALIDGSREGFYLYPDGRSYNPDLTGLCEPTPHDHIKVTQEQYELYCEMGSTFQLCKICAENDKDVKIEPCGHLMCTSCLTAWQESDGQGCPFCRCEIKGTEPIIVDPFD
How it was run: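 UbcH5B (C85K) conjugated to N-terminally Bodipy-Fluorescein-labeled ubiquitin served as the fluorescent partner. After compound preincubation, Src kinase (60 nM) with 1 mM ATP and 5 mM MgCl2 (final) was added for 1.5 h, followed by a further 1 h incubation. Some values were obtained with 50 mM NaCl and 30 nM Src.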

[2] = system: T-cell; assay: IL-2 secretion from T-cells stimulated with anti-CD3 antibody alone (Biological Example 2); type: cell-based, human; conditions: T-cell; for fold induction at 8 µM: 8 μM Cbl-b inhibitor
[3] = system: T-cell; assay: CD25 cell surface staining on T-cells stimulated with anti-CD3 antibody alone (Biological Example 2); type: cell-based, human; conditions: T-cell; for fold induction at 8 µM: 8 μM Cbl-b inhibitor
[4] = system: T-cell; assay: IL-2 secretion from T-cells co-stimulated with anti-CD3 and anti-CD28 antibody (Biological Example 2); type: cell-based, human; conditions: Homo sapiens, T-cell; for fold induction at 4 µM: 4 μM Cbl-b inhibitor
How it was run: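 T-cells were stimulated with anti-CD3 antibody alone or with anti-CD28 antibody, in the presence or absence of Cbl-b inhibitor. IL-2 secretion or CD25 surface staining was measured, and values expressed as fold over the uninhibited baseline […].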

[5] = molecular target: T1, Cbl-b; assay: Cbl-b inhibition assay (Cbl-b activity assay, FRET, Biological Example 1; 100 mM NaCl, 60 nM Src kinase); type: biochemical; conditions: upper bound stated in text lists; read-out: IC50 values in the Cbl-b inhibition assay of Biological Example 1
How it was run: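 Binding-based Cbl-b activity assay. Src-phosphorylated, N-terminally biotin-Avi-tagged Cbl-b recruits labelled UbcH5B-Ub, and proximity to streptavidin-terbium yields FRET.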

[6] = fold change over baseline, 1 μM Cbl-b inhibitor, primary human total T-cells, read-out: IL-2 secretion Anti-CD3 stimulation
[7] = fold change over baseline, primary human total T-cells, read-out: IL-2 secretion Anti-CD3 stimulation
[8] = fold change over baseline, 1 μM Cbl-b inhibitor, primary human total T-cells, read-out: CD25 staining Anti-CD3 stimulation
[9] = fold change over baseline, primary human total T-cells, read-out: CD25 staining Anti-CD3 stimulation
[10] = fold change over baseline, 0.3 μM Cbl-b inhibitor, primary human total T-cells, read-out: IL-2 secretion Anti-CD3/Anti-CD28 stimulation
[11] = fold change over baseline, 1 μM Cbl-b inhibitor, primary human total T-cells, read-out: IL-2 secretion Anti-CD3/Anti-CD28 stimulation
[12] = fold change over baseline, primary human total T-cells, read-out: IL-2 secretion Anti-CD3/Anti-CD28 stimulation
[13] = Homo sapiens, 1 μM Cbl-b inhibitor, fold change over baseline (anti-CD3/anti-CD28 stimulated T-cells without inhibitor), read-out: IL-2 secretion Anti-CD3 stimulation
[14] = Homo sapiens, 1 μM Cbl-b inhibitor, fold change over baseline (anti-CD3/anti-CD28 stimulated T-cells without inhibitor), read-out: CD25 staining Anti-CD3 stimulation
[15] = 0.3 μM Cbl-b inhibitor, fold change over baseline (anti-CD3/anti-CD28 stimulated T-cells without inhibitor), read-out: IL-2 secretion Anti-CD3/Anti-CD28 stimulation
[16] = 1 μM Cbl-b inhibitor, fold change over baseline (anti-CD3/anti-CD28 stimulated T-cells without inhibitor), read-out: IL-2 secretion Anti-CD3/Anti-CD28 stimulation
[17] = read-out: IL-2 secretion, Anti-CD3/Anti-CD28 stimulation, fold change over baseline

| SMILES | IC50 [1] [nM] | fold induction at 1 µM [2, 6] | fold induction at 8 µM [2, 7] | fold induction at 1 µM [3, 8] | fold induction at 8 µM [3, 9] | fold induction at 0.3 µM [4, 10] | fold induction at 1 µM [4, 11] | fold induction at 4 µM [4, 12] | IC50 [5] [nM] | fold induction at 1 µM [2, 13] | fold induction at 1 µM [3, 14] | fold induction at 0.3 µM [4, 15] | fold induction at 1 µM [4, 16] | fold induction at 1 µM ([2]; Homo sapiens, read-out: IL-2 secretion, Anti-CD3 stimulation, fold change over baseline) | fold induction at 1 µM ([3]; Homo sapiens, read-out: CD25 staining, Anti-CD3 stimulation, fold change over baseline) | fold induction at 0.3 µM [4, 17] | fold induction at 1 µM [4, 17] |
| --- | --- | --- | --- | --- | --- | --- | --- | --- | --- | --- | --- | --- | --- | --- | --- | --- | --- |
| C[C@H](Sc1nncn1C)c1cccc(NC(=O)c2cc3cc(OCC(=O)NCCN)ccc3cn2)c1 [Compound 311, 6-[2-(2-aminoethylamino)-2-oxo-ethoxy]-N-[3-[(1S)-1-[(4-methyl-1,2,4-triazol-3-yl)sulfanyl]ethyl]phenyl]isoquinoline-3-carboxamide hydrochloride] | 100 to 300 | < 0.05 | < 0.05 | 0.601 to 0.8 | 0.601 to 0.8 | < 1 | < 1 | 1.01 to 2.5 | ≤ 300 | – | – | – | – | – | – | – | – |
| C[C@H](Cc1nncn1C)c1cccc(NC(=O)c2n[nH]c3c2CCC3)c1 [Compound 313, (R)-N-(3-(1-(4-Methyl-4H-1,2,4-triazol-3-yl)propan-2-yl)phenyl)-1,4,5,6-tetrahydrocyclopenta[c]pyrazole-3-carboxamide] | 100 to 300 | 0.101 to 0.15 | 0.151 to 0.2 | 0.601 to 0.8 | 0.801 to 1 | 1.01 to 2.5 | 1.01 to 2.5 | 2.51 to 5 | ≤ 300 | – | – | – | – | – | – | – | – |
| C[C@@H]1CN(Cc2cc3c(c(C(F)(F)F)c2)CN(c2cccc(C4(Cc5nncn5C)COC4)c2)C3=O)CCO1 [Example 663b, (R)-2-(3-(3-((4-methyl-4H-1,2,4-triazol-3-yl)methyl)oxetan-3-yl)phenyl)-6-((2-methylmorpholino)methyl)-4-(trifluoromethyl)isoindolin-1-one] | < 100 | – | – | – | – | – | – | – | ≤ 100 | > 0.201 | > 1 | > 7.5 | > 7.5 | – | – | – | – |
| CN1CC2CCC(C1)N2c1cc2c(c(C(F)(F)F)c1)CN(c1cccc(C3(Cc4nncn4C)COC3)c1)C2=O [Compound 386, 2-(3-(3-((4-Methyl-4H-1,2,4-triazol-3-yl)methyl)oxetan-3-yl)phenyl)-6-(3-methyl-3,8-diazabicyclo[3.2.1]octan-8-yl)-4-(trifluoromethyl)isoindolin-1-one] | < 100 | – | – | – | – | – | – | – | ≤ 100 | – | – | – | – | > 0.201 | > 1 | > 7.5 | > 7.5 |
| C[C@H](Sc1nncn1C)c1cccc(NC(=O)c2ccnc(C3CC3)n2)c1 [Compound 76, 2-cyclopropyl-A-[3-[(1S)-1-[(4-methyl-1,2,4-triazol-3-yl)sulfanyl]ethyl]phenyl]pyrimidine-4-carboxamide] | < 100 | < 0.05 | 0.051 to 0.1 | 0.601 to 0.8 | > 1 | < 1 | 2.51 to 5 | 5 to 7.5 | ≤ 100 | – | – | – | – | – | – | – | – |
| Cn1cnnc1[C@@H](F)C1(c2cccc(N3Cc4c(cc(CN5CCC(F)CC5)cc4C(F)(F)F)C3=O)c2)COC1 [Example 670a, (S)-2-(3-(3-(fluoro(4-methyl-4H-1,2,4-triazol-3-yl)methyl)oxetan-3-yl)phenyl)-6-((4-fluoropiperidin-1-yl)methyl)-4-(trifluoromethyl)isoindolin-1-one] | < 100 | – | – | – | – | – | – | – | ≤ 100 | > 0.201 | > 1 | 5 to 7.5 | > 7.5 | – | – | – | – |
| Cc1cc(C(=O)Nc2cccc([C@H](C)Cc3nncn3C)c2)nc(C2CC2)n1 [Compound 195, (R)-2-cyclopropyl-6-methyl-N-(3-(1-(4-methyl-4H-1,2,4-triazol-3-yl)propan-2-yl)phenyl)pyrimidine-4-carboxamide] | < 100 | > 0.201 | > 0.201 | > 1 | > 1 | 5 to 7.5 | > 7.5 | > 7.5 | ≤ 100 | – | – | – | – | – | – | – | – |
| CC1CCc2c1n[nH]c2C(=O)Nc1cccc([C@H](C)Cc2nncn2C)c1 (stereo partly drawn) [Compound 323, 6-Methyl-N-(3-((R)-1-(4-methyl-4H-1,2,4-triazol-3-yl)propan-2-yl)phenyl)-2,4,5,6-tetrahydrocyclopenta[c]pyrazole-3-carboxamide] | 100 to 300 | 0.101 to 0.15 | > 0.201 | 0.601 to 0.8 | > 1 | 1.01 to 2.5 | 2.51 to 5 | 5 to 7.5 | ≤ 300 | – | – | – | – | – | – | – | – |
| C[C@H](Cc1nncn1C)c1cccc(NC(=O)c2cccc(C(F)(F)F)n2)c1 [Compound 183a, (R)-N-(3-(1-(4-methyl-4H-1,2,4-triazol-3-yl)propan-2-yl)phenyl)-6-(trifluoromethyl)picolinamide] | < 100 | > 0.201 | > 0.201 | > 1 | > 1 | 2.51 to 5 | 5 to 7.5 | > 7.5 | ≤ 100 | – | – | – | – | – | – | – | – |
| C[C@H](Sc1nncn1C)c1cccc(NC(=O)c2cc(C3CC3)cc(C(F)(F)F)n2)c1 [Compound 67, (S)-4-cyclopropyl-N-(3-(1-((4-methyl-4H-1,2,4-triazol-3-yl)thio)ethyl)phenyl)-6-(trifluoromethyl)picolinamide] | < 100 | < 0.05 | 0.101 to 0.15 | 0.801 to 1 | > 1 | 1.01 to 2.5 | 1.01 to 2.5 | 2.51 to 5 | ≤ 100 | – | – | – | – | – | – | – | – |
| C[C@H](Cc1nncn1C)c1cccc(NC(=O)c2cc(C(C)(C)O)cc(C(F)(F)F)n2)c1 [Compound 320, 4-(2-hydroxypropan-2-yl)-N-[3-[(2R)-1-(4-methyl-4H-1,2,4-triazol-3-yl)propan-2-yl]phenyl]-6-(trifluoromethyl)pyridine-2-carboxamide] | 100 to 300 | 0.101 to 0.15 | > 0.201 | 0.801 to 1 | > 1 | 1.01 to 2.5 | 2.51 to 5 | 5 to 7.5 | ≤ 300 | – | – | – | – | – | – | – | – |
| C[C@H](Sc1nncn1C)c1cccc(NC(=O)c2ccc(C#N)c(C3CC3)n2)c1 [Compound 92, 5-cyano-6-cyclopropyl-N-[3-[(1S)-1-[(4-methyl-1,2,4-triazol-3-yl)sulfanyl]ethyl]phenyl]pyridine-2-carboxamide] | < 100 | < 0.05 | 0.101 to 0.15 | 0.601 to 0.8 | > 1 | 1.01 to 2.5 | 2.51 to 5 | 5 to 7.5 | ≤ 100 | – | – | – | – | – | – | – | – |
| CCNc1cc([C@H](C)Cc2nncn2C)cc(N2Cc3c(cccc3C(F)(F)F)C2=O)n1 [Compound 360, (R)-2-(6-(ethylamino)-4-(1-(4-methyl-4H-1,2,4-triazol-3-yl)propan-2-yl)pyridin-2-yl)-4-(trifluoromethyl)isoindolin-1-one] | < 100 | > 0.201 | > 0.201 | > 1 | > 1 | 2.51 to 5 | > 7.5 | > 7.5 | ≤ 100 | – | – | – | – | – | – | – | – |
| C[C@H](Cc1nncn1C)c1cccc(NC(=O)c2cccc(C(C)(C)C)n2)c1 [Compound 321, (R)-6-(Tert-butyl)-N-(3-(1-(4-methyl-4H-1,2,4-triazol-3-yl)propan-2-yl)phenyl)picolinamide] | < 100 | 0.051 to 0.1 | > 0.201 | 0.801 to 1 | > 1 | 1.01 to 2.5 | 2.51 to 5 | 2.51 to 5 | ≤ 100 | – | – | – | – | – | – | – | – |
